Data from ChEMBL document CHEMBL4261648, “Lobaric acid and pseudodepsidones inhibit NF-κB signaling pathway by activation of PPAR-γ” (Bioorg Med Chem, 2018).
Active and inactive are the calls of the source. No cut-off for these calls is given here.

Key:
[1] = biological target: Toll-like receptor 4 (Homo sapiens) (UniProt O00206); experiment: Inhibition of TLR4 in human U937-3xkappaB-LUC cells assessed as inhibition of Aggregatibacter actinomycetemcomitans LPS-induced NF-kappaB activation at 10 uM preincubated for 30 mins followed by LPS stimulation and measured after 6 hrs post LPS challenge by Bright-Glo luciferase reporter gene assay relative to control
Toll-like receptor 4 (Homo sapiens), sequence (O00206 whole entry, the tested form may be a part): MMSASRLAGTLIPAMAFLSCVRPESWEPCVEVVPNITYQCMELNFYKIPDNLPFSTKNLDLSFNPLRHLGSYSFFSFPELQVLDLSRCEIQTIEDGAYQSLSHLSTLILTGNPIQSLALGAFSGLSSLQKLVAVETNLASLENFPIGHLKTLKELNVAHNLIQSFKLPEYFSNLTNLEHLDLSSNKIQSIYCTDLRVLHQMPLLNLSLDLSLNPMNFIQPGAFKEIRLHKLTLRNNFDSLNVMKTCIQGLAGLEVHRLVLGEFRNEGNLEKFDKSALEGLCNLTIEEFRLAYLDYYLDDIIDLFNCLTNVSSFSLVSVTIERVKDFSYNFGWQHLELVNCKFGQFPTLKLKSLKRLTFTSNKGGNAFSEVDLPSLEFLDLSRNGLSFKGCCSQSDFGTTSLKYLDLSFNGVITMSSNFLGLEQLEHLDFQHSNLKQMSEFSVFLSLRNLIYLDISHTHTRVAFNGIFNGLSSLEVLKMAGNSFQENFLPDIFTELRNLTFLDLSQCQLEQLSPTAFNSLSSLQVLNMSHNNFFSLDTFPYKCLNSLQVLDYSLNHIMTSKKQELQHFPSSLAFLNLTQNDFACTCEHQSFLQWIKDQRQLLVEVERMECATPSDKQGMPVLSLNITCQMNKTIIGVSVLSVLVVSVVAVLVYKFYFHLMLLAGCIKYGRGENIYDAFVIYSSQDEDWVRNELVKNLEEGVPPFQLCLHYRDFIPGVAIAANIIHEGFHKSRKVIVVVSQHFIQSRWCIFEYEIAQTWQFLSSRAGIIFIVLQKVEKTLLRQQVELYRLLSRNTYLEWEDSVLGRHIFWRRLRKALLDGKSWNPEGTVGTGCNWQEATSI

[2] = Cytotoxicity against PMA-differentiated human U937 macrophages assessed as cell viability at 20 uM after 24 hrs by MTT assay relative to untreated control; format: cell-based, U-937; conditions: read-out: Activity
[3] = Cytotoxicity against PMA-differentiated human U937 macrophages assessed as cell viability at 10 uM after 24 hrs by MTT assay relative to untreated control; format: cell-based, U-937; conditions: read-out: Activity
[4] = Cytotoxicity against PMA-differentiated human U937 macrophages assessed as cell viability at 80 uM after 24 hrs by MTT assay relative to untreated control; format: cell-based, U-937; conditions: read-out: Activity
[5] = tested on: U-937; experiment: Antiinflammatory activity in PMA-differentiated human U937 cells assessed as inhibition of LPS-induced TNFalpha secretion at 10 uM preincubated for 2 hrs followed by LPS stimulation and measured after 24 hrs post LPS challenge by ELISA relative to control; format: functional
[6] = tested on: U-937; experiment: Antiinflammatory activity in PMA-differentiated human U937 cells assessed as inhibition of LPS-induced TNFalpha secretion at 20 uM preincubated for 2 hrs followed by LPS stimulation and measured after 24 hrs post LPS challenge by ELISA relative to control; format: functional
[7] = tested on: U-937; experiment: Antiinflammatory activity in PMA-differentiated human U937 cells assessed as inhibition of LPS-induced TNFalpha secretion at 40 uM preincubated for 2 hrs followed by LPS stimulation and measured after 24 hrs post LPS challenge by ELISA relative to control; format: functional
[8] = biological target: Toll-like receptor 4 (Homo sapiens) (UniProt O00206); experiment: Inhibition of TLR4 in human U937-3xkappaB-LUC cells assessed as inhibition of Aggregatibacter actinomycetemcomitans LPS-induced NF-kappaB activation at 5 uM preincubated for 30 mins followed by LPS stimulation and measured after 6 hrs post LPS challenge by Bright-Glo luciferase reporter gene assay relative to control
[9] = biological target: T1, Peroxisome proliferator-activated receptor gamma (Homo sapiens) (UniProt P37231); experiment: Binding affinity to recombinant human PPARgamma LBD at 40 uM by TR-FRET based green polar-screen PPAR competitor assay
T1 sequence (whole entry): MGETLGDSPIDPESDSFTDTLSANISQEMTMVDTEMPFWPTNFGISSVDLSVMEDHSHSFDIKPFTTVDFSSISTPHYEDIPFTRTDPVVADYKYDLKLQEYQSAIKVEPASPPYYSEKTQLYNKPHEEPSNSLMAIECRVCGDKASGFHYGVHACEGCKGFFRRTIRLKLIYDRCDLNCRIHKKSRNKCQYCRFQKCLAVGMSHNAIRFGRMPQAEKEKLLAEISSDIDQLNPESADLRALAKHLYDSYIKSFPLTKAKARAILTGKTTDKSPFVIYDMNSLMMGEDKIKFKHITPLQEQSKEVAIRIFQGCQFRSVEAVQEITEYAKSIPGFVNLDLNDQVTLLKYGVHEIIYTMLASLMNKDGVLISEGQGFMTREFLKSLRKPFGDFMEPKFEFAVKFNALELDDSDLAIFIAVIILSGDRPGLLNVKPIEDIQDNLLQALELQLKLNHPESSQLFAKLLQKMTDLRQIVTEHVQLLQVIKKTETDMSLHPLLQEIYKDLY

[10] = tested on: U-937; experiment: Antiinflammatory activity in PMA-differentiated human U937 cells assessed as inhibition of LPS-induced TNFalpha secretion at 80 uM preincubated for 2 hrs followed by LPS stimulation and measured after 24 hrs post LPS challenge by ELISA relative to control; format: functional
[11] = biological target: Toll-like receptor 4 (Homo sapiens) (UniProt O00206); experiment: Inhibition of TLR4 in human U937-3xkappaB-LUC cells assessed as inhibition of Aggregatibacter actinomycetemcomitans LPS-induced NF-kappaB activation at 50 uM preincubated for 30 mins followed by LPS stimulation and measured after 6 hrs post LPS challenge by Bright-Glo luciferase reporter gene assay relative to control
[12] = Cytotoxicity against PMA-differentiated human U937 macrophages assessed as cell viability at 40 uM after 24 hrs by MTT assay relative to untreated control; format: cell-based, U-937; conditions: read-out: Activity
[13] = biological target: Toll-like receptor 4 (Homo sapiens) (UniProt O00206); experiment: Inhibition of TLR4 in human U937-3xkappaB-LUC cells assessed as inhibition of Aggregatibacter actinomycetemcomitans LPS-induced NF-kappaB activation at 20 uM preincubated for 30 mins followed by LPS stimulation and measured after 6 hrs post LPS challenge by Bright-Glo luciferase reporter gene assay relative to control
[14] = biological target: Toll-like receptor 4 (Homo sapiens) (UniProt O00206); experiment: Inhibition of TLR4 in human U937-3xkappaB-LUC cells assessed as inhibition of Escherichia coli LPS-induced NF-kappaB activation at 5 to 50 uM preincubated for 30 mins followed by LPS stimulation and measured after 6 hrs post LPS challenge by Bright-Glo luciferase reporter gene assay relative to control
[15] = tested on: U-937; experiment: Antiinflammatory activity in human U937 cells assessed as inhibition Aggregatibacter actinomycetemcomitans LPS-induced TNFalpha secretion at 10 to 80 uM preincubated for 2 hrs followed by LPS stimulation and measured after 24 hrs post LPS challenge by ELISA; format: functional, cell-based
[16] = tested on: U-937; experiment: Antiinflammatory activity in human U937 cells assessed as inhibition of LPS-induced IL-6 production at 40 to 80 uM preincubated for 2 hrs followed by LPS stimulation and measured after 24 hrs post LPS challenge by ELISA; format: functional, cell-based
[17] = tested on: U-937; experiment: Antiinflammatory activity in human U937 cells assessed as inhibition Aggregatibacter actinomycetemcomitans LPS-induced IL-1beta secretion at 10 to 80 uM preincubated for 2 hrs followed by LPS stimulation and measured after 24 hrs post LPS challenge by ELISA; format: functional, cell-based
[18] = tested on: U-937; experiment: Antiinflammatory activity in human U937 cells assessed as inhibition of LPS-induced IL-1beta production preincubated for 2 hrs followed by LPS stimulation and measured after 24 hrs post LPS challenge by ELISA; format: functional, cell-based
[19] = biological target: Toll-like receptor 4 (Homo sapiens) (UniProt O00206); experiment: Inhibition of TLR4 in human U937-3xkappaB-LUC cells assessed as inhibition of Aggregatibacter actinomycetemcomitans LPS-induced NF-kappaB activation preincubated for 30 mins followed by LPS stimulation and measured after 6 hrs post LPS challenge by Bright-Glo luciferase reporter gene assay relative to control
[20] = tested on: U-937; experiment: Antiinflammatory activity in human U937 cells assessed as inhibition of LPS-induced IL-8 production at 40 to 80 uM preincubated for 2 hrs followed by LPS stimulation and measured after 24 hrs post LPS challenge by ELISA; format: functional, cell-based
[21] = tested on: U-937; experiment: Antiinflammatory activity in human U937 cells assessed as inhibition of Escherichia coli LPS-induced TNFalpha secretion at 10 to 80 uM preincubated for 2 hrs followed by LPS stimulation and measured after 24 hrs post LPS challenge by ELISA; format: functional, cell-based
[22] = tested on: U-937; experiment: Antiinflammatory activity in human U937 cells assessed as inhibition of LPS-induced IL-8 production at 20 uM preincubated for 2 hrs followed by LPS stimulation and measured after 24 hrs post LPS challenge by ELISA; format: functional, cell-based
[23] = tested on: U-937; experiment: Antiinflammatory activity in human U937 cells assessed as inhibition of Escherichia coli LPS-induced IL-1beta secretion at 10 to 80 uM preincubated for 2 hrs followed by LPS stimulation and measured after 24 hrs post LPS challenge by ELISA; format: functional, cell-based
[24] = biological target: Toll-like receptor 4 (Homo sapiens) (UniProt O00206); experiment: Inhibition of TLR4 in human U937-3xkappaB-LUC cells assessed as inhibition of Aggregatibacter actinomycetemcomitans LPS-induced NF-kappaB activation at 5 to 50 uM preincubated for 30 mins followed by LPS stimulation and measured after 6 hrs post LPS challenge by Bright-Glo luciferase reporter gene assay relative to control
[25] = tested on: U-937; experiment: Antiinflammatory activity in human U937 cells assessed as inhibition of LPS-induced IL-8 production at 10 to 20 uM preincubated for 2 hrs followed by LPS stimulation and measured after 24 hrs post LPS challenge by ELISA; format: functional, cell-based
[26] = tested on: U-937; experiment: Antiinflammatory activity in human U937 cells assessed as inhibition of LPS-induced IL-8 production preincubated for 2 hrs followed by LPS stimulation and measured after 24 hrs post LPS challenge by ELISA; format: functional

SMILES | inhibition [1] | viability at 24 h, 20 µM [2] | viability at 24 h, 10 µM [3] | viability at 24 h, 80 µM [4] | inhibition at 10 µM [5] | inhibition at 20 µM [6] | inhibition at 40 µM [7] | inhibition [8] | Activity [9] | inhibition at 80 µM [10] | inhibition [11] | viability at 24 h, 40 µM [12] | inhibition [13] | also measured
CCCCCc1cc(O)cc(O)c1Oc1cc(OC)cc(C(=O)CCCC)c1C(=O)OC | 39% | 105% | 119% | 66% | 0% | 0% | 0% | 23% | Active | 55% | 52% | 85% | 52% | 
CCCCCc1c(Oc2cc3c(cc2OC)C(CCCC)(OC)OC3=O)c(O)cc(O)c1C(=O)O (configuration not stated) | 39% | 131% | 126% | 52% | 0% | 0% | 3% | 27% |  | 100% | 84% | 121% | 63% | 
CN(CCOc1ccc(CC2SC(=O)NC2=O)cc1)c1ccccn1 (configuration not stated) |  |  |  |  |  |  |  |  | Active |  |  |  |  | 
COC(=O)c1c(C)cc(O)c(C)c1O [ATRARIC ACID] | 19% | 118% | 112% | 125% | 0% | 0% | 0% | 27% | inactive | 0% | 25% | 116% | 36% | 
CCCCCc1cc(O)cc(O)c1Oc1cc(OC)cc2c1C(=O)OC2(O)CCCC (configuration not stated) | 29% | 124% | 118% | 114% | 0% | 0% | 0% | 26% | Active | 7% | 36% | 122% | 48% | 
CCCCCc1c2c(cc(O)c1C(=O)O)OC(=O)c1c(cc(OC)cc1C(=O)CCCC)O2 [LOBARIC ACID] | 42% | 121% | 118% | 90% | 1% | 89% | 100% | 29% | Active | 100% | 99% | 73% | 78% | inhibition [14]: Dose-dependent effect; inhibition [15]: Dose-dependent effect; inhibition [16]: Active; inhibition [17]: Dose-dependent effect; inhibition [18]: Dose-dependent effect; inhibition [19]: Dose-dependent effect; inhibition [20]: Active; inhibition [21]: Dose-dependent effect; inhibition [22]: inactive; inhibition [23]: Dose-dependent effect; inhibition [24]: Dose-dependent effect; inhibition [25]: inactive
COC(=O)c1c(C)cc(O)c(C=O)c1O [METHYL HAEMATOMMATE] | 24% | 102% | 119% | 82% | 0% | 3% | 41% | 17% |  | 80% | 67% | 102% | 38% | inhibition [26]: Dose-dependent effect
CCCCCc1cc(O)cc(O)c1Oc1cc2c(cc1OC)C(CCCC)(OC)OC2=O (configuration not stated) | 15% | 96% | 116% | 24% | 0% | 0% | 0% | 12% |  | 100% | 34% | 87% | 29% | 
